Test results from ChEMBL document CHEMBL3352551, “Synthesis and biological evaluation of novel allosteric enhancers of the A1 adenosine receptor based on 2-amino-3-(4'-chlorobenzoyl)-4-substituted-5-arylethynyl thiophene” (J Med Chem, 2014).
Active and inactive are the calls of the source. The rule behind the calls is not given here.

Key:
[1] = biological target: Adenosine receptor A2a (Homo sapiens) (UniProt P29274); assay: Displacement of [3H]ZM241385 from human adenosine A2A receptor expressed in CHO cell membranes at 10 uM
[2] = biological target: T1, Adenosine receptor A1 (Homo sapiens) (UniProt P30542); assay: Allosteric enhancer activity at human adenosine A1 receptor expressed in CHO cell membranes assessed as [3H]NECA association rate at 1 uM (reference value: 0.0183 +/- 0.0008 /nM/min); format: cell-based
T1 sequence (whole entry): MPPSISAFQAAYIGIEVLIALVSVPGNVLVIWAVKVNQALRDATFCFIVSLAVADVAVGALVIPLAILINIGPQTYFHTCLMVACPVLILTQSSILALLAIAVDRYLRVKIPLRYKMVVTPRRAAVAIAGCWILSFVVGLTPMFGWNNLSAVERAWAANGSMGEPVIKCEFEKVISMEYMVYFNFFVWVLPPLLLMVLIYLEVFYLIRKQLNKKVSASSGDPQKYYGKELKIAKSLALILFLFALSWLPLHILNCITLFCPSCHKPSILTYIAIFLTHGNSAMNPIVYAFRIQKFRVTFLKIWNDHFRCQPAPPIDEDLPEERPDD

[3] = biological target: T1, Adenosine receptor A1 (Homo sapiens); assay: Allosteric enhancer activity at human adenosine A1 receptor expressed in CHO cell membranes assessed as shift in [3H]CCPA Bmax level at 10 uM by saturation binding assay
[4] = biological target: T1, Adenosine receptor A1 (Homo sapiens); assay: Allosteric enhancer activity at human adenosine A1 receptor expressed in CHO cell membranes assessed as shift in CCPA binding Ki level at 10 uM by [3H]DPCPX competition binding assay
[5] = biological target: T1, Adenosine receptor A1 (Homo sapiens); assay: Displacement of [3H]DPCPX from human adenosine A1 receptor expressed in CHO cell membranes at 10 uM
[6] = biological target: T1, Adenosine receptor A1 (Homo sapiens); assay: Allosteric enhancer activity at human adenosine A1 receptor expressed in CHO cell membranes assessed as [3H]NECA dissociation rate at 1 uM (reference value: 0.0159 +/- 0.0004 /min); format: cell-based
[7] = biological target: T1, Adenosine receptor A1 (Homo sapiens); assay: Allosteric enhancer activity at human adenosine A1 receptor expressed in CHO cell membranes assessed as shift in [3H}NECA binding affinity level at 1 uM
Adenosine receptor A1 = biological target: T2, Adenosine receptor A1 (Rattus norvegicus, UniProt P25099); assay: Displacement of [3H]DPCPX from adenosine A1 receptor in rat membranes; format: cell membranes
T2 sequence (P25099 whole entry): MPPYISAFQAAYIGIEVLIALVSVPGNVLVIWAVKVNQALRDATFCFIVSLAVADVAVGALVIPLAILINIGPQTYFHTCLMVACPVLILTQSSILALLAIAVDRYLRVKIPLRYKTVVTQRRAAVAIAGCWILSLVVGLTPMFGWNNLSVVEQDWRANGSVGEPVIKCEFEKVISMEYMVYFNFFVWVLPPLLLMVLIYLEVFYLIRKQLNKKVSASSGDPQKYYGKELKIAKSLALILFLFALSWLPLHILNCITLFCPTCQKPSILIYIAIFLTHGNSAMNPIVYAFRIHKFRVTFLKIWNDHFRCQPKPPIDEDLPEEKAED

[8] = biological target: T1, Adenosine receptor A1 (Homo sapiens); assay: Allosteric enhancer activity at human adenosine A1 receptor expressed in CHO cell membranes assessed as shift in [3H]CCPA Kd level at 10 uM by saturation binding assay
[9] = biological target: T3, Adenosine receptor A3 (Homo sapiens) (UniProt P0DMS8); assay: Displacement of [3H]MRE-3008-F20 from human adenosine 3 receptor expressed in CHO cell membranes at 10 uM
T3 sequence (whole entry): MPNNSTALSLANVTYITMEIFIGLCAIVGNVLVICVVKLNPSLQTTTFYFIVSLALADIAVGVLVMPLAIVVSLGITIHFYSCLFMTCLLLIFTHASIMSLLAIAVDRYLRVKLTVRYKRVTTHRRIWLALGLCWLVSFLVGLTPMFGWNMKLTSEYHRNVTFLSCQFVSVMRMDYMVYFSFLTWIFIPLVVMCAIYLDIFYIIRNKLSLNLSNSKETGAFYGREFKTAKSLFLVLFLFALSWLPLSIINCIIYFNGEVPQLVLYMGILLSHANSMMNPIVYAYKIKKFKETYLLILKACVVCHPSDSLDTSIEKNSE

[10] = biological target: T1, Adenosine receptor A1 (Homo sapiens); assay: Allosteric enhancer activity at human adenosine A1 receptor expressed in CHO cells assessed as inhibition of forskolin-induced cAMP production at 100 nM in presence of 1 pM CCPA; format: functional, cell-based
[11] = biological target: T1, Adenosine receptor A1 (Homo sapiens); assay: Allosteric enhancer activity at human adenosine A1 receptor expressed in CHO cells assessed as inhibition of forskolin-induced cAMP production at 10 uM; format: functional, cell-based
[12] = biological target: T1, Adenosine receptor A1 (Homo sapiens); assay: Allosteric enhancer activity at human adenosine A1 receptor expressed in CHO cell membranes assessed as slowing of [3H]NECA dissociation rate level at 1 uM; format: cell-based

Sequence of Adenosine receptor A2a (Homo sapiens) (P29274 whole entry): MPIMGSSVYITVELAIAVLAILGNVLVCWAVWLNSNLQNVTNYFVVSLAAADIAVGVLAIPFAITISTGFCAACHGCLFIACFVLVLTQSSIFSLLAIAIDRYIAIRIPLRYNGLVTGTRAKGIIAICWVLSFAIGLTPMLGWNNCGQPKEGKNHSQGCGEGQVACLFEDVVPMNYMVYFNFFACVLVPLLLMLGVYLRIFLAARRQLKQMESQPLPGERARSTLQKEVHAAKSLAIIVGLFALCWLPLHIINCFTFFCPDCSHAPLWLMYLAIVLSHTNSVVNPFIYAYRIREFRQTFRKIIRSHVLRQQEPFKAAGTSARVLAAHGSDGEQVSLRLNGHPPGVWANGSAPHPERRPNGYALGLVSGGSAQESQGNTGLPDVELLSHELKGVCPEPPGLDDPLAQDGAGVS

| Structure (SMILES) | inhibition [1] | K [2] | fold change (FC) [3] | fold change (FC) [4] | inhibition [5] | K [6] | fold change (FC) [7] | Ki (Adenosine receptor A1) | Activity [8] | inhibition [9] | inhibition [10] | inhibition [11] | fold change (FC) [12] |
| --- | --- | --- | --- | --- | --- | --- | --- | --- | --- | --- | --- | --- | --- |
| Cc1sc(N)c(C(=O)c2cccc(C(F)(F)F)c2)c1C | inactive | 318000 M⁻¹ s⁻¹ | 1.3 | 1.3 | inactive | 0.0143 min⁻¹ | 1.2 | 11 µM | inactive | – | – | – | – |
| CC(C)(C)Cc1c(C#Cc2ccccc2)sc(N)c1C(=O)c1ccc(Cl)cc1 | < 15% | 273000 M⁻¹ s⁻¹ | 9.5 | 9.9 | < 15% | 0.0076 min⁻¹ | 1.9 | – | inactive | < 15% | 77% | 75% | 2.1 |
